{
  "source": "paper PMC7125926",
  "about": "(Antiviral Research, 2015)",
  "key": {"[1]": {"tested_on": "influenza virus", "conditions": "mouse, cited from earlier work"}, "[2]": {"tested_on": "IP-10", "assay": "tissue or blood", "assay_type": "cell-based, mouse"}, "[3]": {"tested_on": "PR8 (H1N1) influenza virus", "assay_type": "cell-based"}, "[4]": {"tested_on": "influenza A virus", "conditions": "ref An et al., 2014; cited from earlier work"}, "[5]": {"tested_on": "influenza virus", "assay_type": "in vivo, mice", "conditions": "Fig. S5"}, "[6]": {"assay": "MTT assay of drug toxicity in mouse lung slices", "assay_type": "cell-based"}, "[7]": {"conditions": "read-out: IP-10-EC50: 50% effective concentration determined by ELISA of IP-10"}, "[8]": {"conditions": "read-out: NA-EC50: 50% effective concentration determined by NA activity assay"}, "[9]": {"conditions": "Mus musculus, 48 h, read-out: IP-10-EC50: 50% effective concentration determined by ELISA of IP-10"}},
  "note": "Values joined by “and” are separate entries in the source; they are usually repeats but may differ in a detail not shown here. Equal values may be shown once. “Also recorded” adds a separate entry of the source. Where a name gives a salt, the structure may show the parent alone. Read-outs that look alike come from different tables or passages of the source.",
  "data": [
    {"compound": "CCCCC/C=C/C=C1/C(=O)C=C[C@@H]1C/C=C\\CCCC(=O)O", "note": "[15d-PGJ2, 15-deoxy-Δ^12,14-prostaglandin J2]", "values": [
      {"measurement": "inhibition of virus replication", "setting": "[1]; in vivo", "value": "does not inhibit virus replication"},
      {"measurement": "mice protected from death against lethal influenza infection", "setting": "[1]; in vivo", "value": 79, "unit": "%"},
      {"measurement": "In vivo: the protection effect of mice from lethal influenza infection", "setting": "[1]", "value": "+"},
      {"measurement": "effect on IP-10 levels in lung slices (in words)", "setting": "[2]", "value": "dose dependently decreased IP-10 levels"},
      {"measurement": "EC50", "setting": "[2]; [7]", "value": 0.2, "unit": "µM"},
      {"measurement": "effect on virus replication / NA activity in lung slices (in words)", "setting": "[3]", "value": "neither inhibited virus replication"}
    ]},
    {"compound": "CN(C)CCCOc1nn(Cc2ccccc2)c2ccccc12", "note": "[Benzydamine]", "values": [
      {"measurement": "antiviral activity in MDCK cells (in words)", "setting": "[4]", "value": "known antiviral activity"},
      {"measurement": "effect on IP-10 levels in lung slices (in words)", "setting": "[2]", "value": "inhibited neither"},
      {"measurement": "effect on virus replication / NA activity in lung slices (in words)", "setting": "[3]", "value": "inhibited neither"},
      {"measurement": "protection of mice from lethal doses of influenza virus infection (in words)", "setting": "[5]", "value": "failed to protect mice"},
      {"measurement": "CC50 at 48 h", "setting": "[6]", "value": 113, "unit": "µM"}
    ]},
    {"compound": "Clc1ccccc1C(c1ccccc1)(c1ccccc1)n1ccnc1", "note": "[Clotrimazole]", "values": [
      {"measurement": "antiviral activity in MDCK cells (in words)", "setting": "[4]", "value": "known antiviral activity"},
      {"measurement": "effect on IP-10 levels in lung slices (in words)", "setting": "[2]", "value": "inhibited neither"},
      {"measurement": "effect on virus replication / NA activity in lung slices (in words)", "setting": "[3]", "value": "inhibited neither"},
      {"measurement": "protection of mice from lethal doses of influenza virus infection (in words)", "setting": "[5]", "value": "failed to protect mice"},
      {"measurement": "CC50 at 48 h", "setting": "[6]", "value": 16.3, "unit": "µM"}
    ]},
    {"compound": "CCN(CC)CCOC(=O)C1(C2CCCCC2)CCCCC1", "note": "[Dicyclomine]", "values": [
      {"measurement": "effect on IP-10 levels in lung slices (in words)", "setting": "[2]", "value": "inhibited neither"}
    ]},
    {"compound": "O=C(O[C@@H]1Cc2c(O)cc(O)cc2O[C@@H]1c1cc(O)c(O)c(O)c1)c1cc(O)c(O)c(O)c1", "note": "[EGCG]", "values": [
      {"measurement": "In vivo: the protection effect of mice from lethal influenza infection", "setting": "[1]", "value": "+"},
      {"measurement": "effect on IP-10 levels in lung slices (in words)", "setting": "[2]", "value": "dose dependently decrease"},
      {"measurement": "EC50", "setting": "[2]; [7]", "value": 3.3, "unit": "µM"},
      {"measurement": "effect on virus replication / NA activity in lung slices (in words)", "setting": "[3]", "value": "dose dependently decrease NA levels"},
      {"measurement": "EC50", "setting": "[3]; [8]", "value": 50.1, "unit": "µM"}
    ]},
    {"compound": "CC(C)OC(=O)C(C)(C)Oc1ccc(C(=O)c2ccc(Cl)cc2)cc1", "note": "[Fenofibrate]", "values": [
      {"measurement": "antiviral activity in MDCK cells (in words)", "setting": "[4]", "value": "known antiviral activity"},
      {"measurement": "effect on IP-10 levels in lung slices (in words)", "setting": "[2]", "value": "inhibited neither"},
      {"measurement": "effect on virus replication / NA activity in lung slices (in words)", "setting": "[3]", "value": "inhibited neither"},
      {"measurement": "protection of mice from lethal doses of influenza virus infection (in words)", "setting": "[5]", "value": "failed to protect mice"},
      {"measurement": "CC50 at 48 h", "setting": "[6]", "value": "> 200", "unit": "µM"}
    ]},
    {"compound": "CC(C)=C1C/C=C(\\C)CC/C=C(\\C)CC1=O", "note": "[Gemacrone]", "values": [
      {"measurement": "In vivo: the protection effect of mice from lethal influenza infection", "setting": "[1]", "value": "+"},
      {"measurement": "EC50", "setting": "[2]; [7]", "value": 17.6, "unit": "µM"},
      {"measurement": "effect on virus replication / NA activity in lung slices (in words)", "setting": "[3]", "value": "efficiently inhibited virus replication"},
      {"measurement": "EC50", "setting": "[3]; [8]", "value": 23.1, "unit": "µM"}
    ]},
    {"compound": "CCN(CC)CCOC(=O)C(Cc1cccc2ccccc12)CC1CCCO1", "note": "(centres unmarked) [Nafronyl oxalate]", "values": [
      {"measurement": "antiviral activity in MDCK cells (in words)", "setting": "[4]", "value": "known antiviral activity"},
      {"measurement": "effect on IP-10 levels in lung slices (in words)", "setting": "[2]", "value": "inhibited the inflammatory response"},
      {"measurement": "EC50", "setting": "[2]; [9]", "value": 22.1, "unit": "µM"},
      {"measurement": "effect on virus replication / NA activity in lung slices (in words)", "setting": "[3]", "value": "not showing any antiviral activity"},
      {"measurement": "CC50 at 48 h", "setting": "[6]", "value": 122, "unit": "µM"}
    ]},
    {"compound": "CCCC(C(=O)OCCN(CC)CC)(c1ccccc1)c1ccccc1", "note": "[Proadifen]", "values": [
      {"measurement": "antiviral activity in MDCK cells (in words)", "setting": "[4]", "value": "known antiviral activity"},
      {"measurement": "effect on IP-10 levels in lung slices (in words)", "setting": "[2]", "value": "inhibited neither"},
      {"measurement": "effect on virus replication / NA activity in lung slices (in words)", "setting": "[3]", "value": "inhibited neither"},
      {"measurement": "protection of mice from lethal doses of influenza virus infection (in words)", "setting": "[5]", "value": "failed to protect mice"},
      {"measurement": "CC50 at 48 h", "setting": "[6]", "value": 32.2, "unit": "µM"}
    ]},
    {"compound": "NC(=O)c1ncn([C@@H]2O[C@H](CO)[C@@H](O)[C@H]2O)n1", "note": "[Ribavirin, ribavirin]", "values": [
      {"measurement": "EC50", "setting": "[2]; [9]", "value": 21.8, "unit": "µM"},
      {"measurement": "EC50", "setting": "[2]; Mus musculus, 48 h, read-out: IP-10-EC50: 50% effective concentration determined by IP-10 inhibition", "value": 21.8, "unit": "µM"},
      {"measurement": "EC50", "setting": "[2]; read-out: IP-10-EC50: 50% effective concentration determined by IP-10 inhibition", "value": "17.8 µM and 20.6 µM and 14.2 µM"},
      {"measurement": "effect on virus replication / NA activity in lung slices (in words)", "setting": "[3]", "value": "dose dependent inhibition; also recorded: efficiently inhibited virus replication"},
      {"measurement": "EC50", "setting": "[3]; read-out: NA-EC50: 50% effective concentration determined by NA inhibition", "value": "25.4 µM and 28.3 µM and 17.7 µM"},
      {"measurement": "CC50 at 48 h", "setting": "[6]", "value": "> 200", "unit": "µM"}
    ]},
    {"compound": "C[S+]([O-])c1ccc(-c2nc(-c3ccncc3)c(-c3ccc(F)cc3)[nH]2)cc1", "note": "(centres unmarked) [SB203580]", "values": [
      {"measurement": "In vivo: the protection effect of mice from lethal influenza infection", "setting": "[1]", "value": "+"},
      {"measurement": "effect on IP-10 levels in lung slices (in words)", "setting": "[2]", "value": "dose dependently decreased IP-10 levels"},
      {"measurement": "effect on virus replication / NA activity in lung slices (in words)", "setting": "[3]", "value": "neither inhibited virus replication"},
      {"measurement": "CC50 at 48 h", "setting": "[6]", "value": "> 100", "unit": "µM"}
    ]},
    {"compound": "N#CC(=C(/N)Sc1ccccc1N)/C(C#N)=C(/N)Sc1ccccc1N", "note": "[U0126]", "values": [
      {"measurement": "In vivo: the protection effect of mice from lethal influenza infection", "setting": "[1]", "value": "+"},
      {"measurement": "effect on IP-10 levels in lung slices (in words)", "setting": "[2]", "value": "dose dependently decrease"},
      {"measurement": "EC50", "setting": "[2]; [7]", "value": 1.3, "unit": "µM"},
      {"measurement": "effect on virus replication / NA activity in lung slices (in words)", "setting": "[3]", "value": "dose dependent inhibition; also recorded: dose dependently decrease NA levels"},
      {"measurement": "EC50", "setting": "[3]; [8]", "value": 12, "unit": "µM"}
    ]}
  ]
}
